Assay [1] has as its target K-Ras^G12C : hSOS1 interaction (Homo sapiens, UniProt Q07889). The experiment in a line: Biochemical assay 1: K-Ras^G12C interaction assay with hSOS1 (HTRF). Type of assay: binding. The following applies: read-out: Assay 1 (KRAS-SOS Interaction) activity expressed as IC50.
Assay [2] has as its target human SOS1 (loading of human K-Ras^G12C-GDP with fluorescent GTP-analog) (Homo sapiens, UniProt Q07889). As to the kind of experiment: Biochemical assay 3: K-Ras^G12C activation assay by hSOS1 (HTRF). The following applies: no GTP; read-out: Assay 3 (KRAS-Activation by SOS no GTP) activity expressed as IC50.

This is an account of results in patent US20240083857A1, “2-Methyl-Quinazolines” (Bayer Pharma Aktiengesellschaft, priority 2017, published 2024).

On to `COc1cc2nc(C)nc(NC(C)c3ccc(-c4ccccc4CNC4CCCC4)s3)c2cc1OC` (centres unmarked) [Example 364, N-[1-(5-{2-[(cyclopentylamino)methyl]phenyl}thiophen-2-yl)ethyl]-6,7-dimethoxy-2-methylquinazolin-4-amine], for which the IC50 in assay [1] turned out to be 129 nM; in assay [2], 217 nM.
Take `COc1cc2nc(C)nc(NC(C)c3ccc(-c4ccccc4CNCc4ccccc4)s3)c2cc1OC` (centres unmarked) [Example 365, N-[1-(5-{2-[(benzylamino)methyl]phenyl}thiophen-2-yl)ethyl]-6,7-dimethoxy-2-methylquinazolin-4-amine]: the half-maximal inhibitory concentration (IC50) in assay [1] came out at 469 nM; in assay [2], 353 nM.
The matching figures for `CCCCNCc1ccccc1-c1ccc(C(C)Nc2nc(C)nc3cc(OC)c(OC)cc23)s1` (centres unmarked) [Example 366, N-[1-(5-{2-[(butylamino)methyl]phenyl}thiophen-2-yl)ethyl]-6,7-dimethoxy-2-methylquinazolin-4-amine]: 97.6 nM and 136 nM.
Taken in the same sequence, the figures for `CCNCc1ccccc1-c1ccc(C(C)Nc2nc(C)nc3cc(OC)c(OC)cc23)s1` (centres unmarked) [Example 367, N-[1-(5-{2-[(ethylamino)methyl]phenyl}thiophen-2-yl)ethyl]-6,7-dimethoxy-2-methylquinazolin-4-amine] were 71.6 nM and 99 nM.
